Article PMC8945041 (Biomedicines, 2022)
Like-named read-outs stand apart in the source and are kept apart here.

What was measured:
[1] = tested on: POPC and POPC:Chol (2:1) LUV, erythrocytes and PBMCs; format: binding, human
[2] = pH 7.4
[3] = pH 7.4; remark: listed apart in the source
Erythrocytes = format: binding, human; conditions: for Kd: read-out: Kd (apparent dissociation constant), Erythrocytes
PBMCs = format: binding, human; conditions: for Kd: read-out: Kd (apparent dissociation constant), PBMCs

## CC(C)CCC[C@@H](C)[C@H]1CC[C@H]2[C@@H]3CC=C4C[C@@H](O)CC[C@]4(C)[C@H]3CC[C@]12C [cholesterol]
[1]
  change in membrane dipole potential (di-8-ANEPPS): no changes in dipole potential were observed

## VIKI–GSGSG-C-dPEG4–Cys–(CH2CONH2) [VIKI-dPEG4]
[2]
  secondary structure by CD: random coil
[3]
  maximum fluorescence emission wavelength, free in solution: 356 nm

## VIKI–GSGSG–C-dPEG4–Cys-(PEG4-bis-tocopherol) [VIKI-dPEG4-bisToco]
Erythrocytes
  Rmin, Erythrocytes: −0.22 ± 0.01
  Kd: 90 ± 30 nM
PBMCs
  Rmin, PBMCs: −0.27 ± 0.01
  Kd: 180 ± 40 nM

## VIKI–GSGSG–C-dPEG4–Cys–(PEG4-bis-cholesterol) [VIKI-dPEG4-bisChol]
Erythrocytes
  Rmin, Erythrocytes: −0.36 ± 0.01
Erythrocytes; 1.4% DMSO
  Kd: 70 ± 20 nM
PBMCs
  Rmin, PBMCs: −0.24 ± 0.01
PBMCs; 1.4% DMSO
  Kd: 220 ± 50 nM

## VIKI–GSGSG–C-dPEG4–Cys–cholesterol [VIKI-dPEG4-Chol]
Erythrocytes
  Rmin, Erythrocytes: −0.33 ± 0.01
Erythrocytes; 1.4% DMSO
  Kd: 130 ± 30 nM
PBMCs
  Rmin, PBMCs: −0.23 ± 0.02
PBMCs; 1.4% DMSO
  Kd: 300 ± 120 nM

## VIKI–GSGSG–C-dPEG4–Cys–tocopherol [VIKI-dPEG4-Toco]
Erythrocytes
  Rmin, Erythrocytes: −0.30 ± 0.01
  Kd: 140 ± 30 nM
PBMCs
  Rmin, PBMCs: −0.29 ± 0.02
  Kd: 510 ± 120 nM

## tocopherol
[1]
  change in membrane dipole potential (di-8-ANEPPS): no changes in dipole potential were observed
